Source: publication doi:10.1101/2025.01.23.634444v1, “The histidine kinase VraS orchestrates the cell-wall stress response in Staphylococcus aureus via its direct interaction with glycopeptides and β-lactams” (biorxiv, 2025)

Key:
VraS (VraS-H6x) [1] = target: T1, VraS (VraS-H6x) (Staphylococcus aureus, UniProt A0A0H2XJC3); assay: saturation transfer difference NMR; type: binding; set-up: full-length, C-terminal His6 tag kept, codon-optimised synthetic gene, pET24a(+), expressed in E. coli BL21 Star (DE3) membranes, purified in DDM, reconstituted in liposomes; 347 residues, 40,867 Da tagged; dimer in DDM; details: 20 µM VraS, 400 µM ampicillin, sodium phosphate pH 7.4, 280 mM NaCl, 6 mM KCl, 0.01% DDM, 10% D2O
VraS (VraS-H6x) [2] = target: T1, VraS (VraS-H6x); assay: biochemical

T1 sequence (A0A0H2XJC3 entry or part of it): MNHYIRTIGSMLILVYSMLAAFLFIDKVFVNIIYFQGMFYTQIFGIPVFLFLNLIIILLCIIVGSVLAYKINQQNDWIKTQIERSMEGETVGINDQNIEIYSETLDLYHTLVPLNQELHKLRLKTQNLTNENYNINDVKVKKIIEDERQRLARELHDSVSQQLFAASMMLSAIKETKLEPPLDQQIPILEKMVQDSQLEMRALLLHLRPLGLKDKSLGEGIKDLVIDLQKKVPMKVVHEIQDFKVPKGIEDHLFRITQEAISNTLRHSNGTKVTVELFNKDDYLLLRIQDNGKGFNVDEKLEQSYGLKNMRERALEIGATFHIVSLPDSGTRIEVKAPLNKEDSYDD

CC1(C)S[C@@H]2[C@H](NC(=O)[C@H](N)c3ccccc3)C(=O)N2[C@H]1C(=O)O [ampicillin]
STD (VraS (VraS-H6x) [1]): the difference spectrum demonstrated the interaction of ampicillin with VraS

CN[C@H](CC(C)C)C(=O)N[C@H]1C(=O)N[C@@H](CC(N)=O)C(=O)N[C@H]2C(=O)N[C@H]3C(=O)N[C@H](C(=O)N[C@H](C(=O)O)c4cc(O)cc(O)c4-c4cc3ccc4O)[C@H](O)c3ccc(c(Cl)c3)Oc3cc2cc(c3O[C@@H]2O[C@H](CO)[C@@H](O)[C@H](O)[C@H]2O[C@H]2C[C@](C)(N)[C@H](O)[C@H](C)O2)Oc2ccc(cc2Cl)[C@H]1O [vancomycin]
IC50 (VraS (VraS-H6x) [2]): 1600 ± 300 µM
